Assay results from the SangsterLogP compilation.

Experiment: method code SF-GLC, from DOI: 10.1016/s0045-6535(99)00157-5

| SMILES | logP |
| --- | --- |
| ClC=C1C2C(Cl)C(Cl)C(C2Cl)C1(CCl)CCl (stereo not drawn) | 5.35 |
| C[C@]1(C(Cl)Cl)[C@H]2CC(Cl)(Cl)[C@]1(C(Cl)Cl)CC2(Cl)Cl | 5.9 |
| ClCC1(CCl)C(=C(Cl)Cl)C2CC1C(Cl)(Cl)C2Cl (stereo not drawn) | 5.44 |
| ClC[C@@]1(C(Cl)Cl)C2[C@@H](Cl)[C@H](Cl)C1(C(Cl)Cl)[C@@H](Cl)[C@@H]2Cl | 5.89 |
| ClCC12CCC(C(Cl)C1(Cl)Cl)C2(C(Cl)Cl)C(Cl)Cl (stereo not drawn) | 5.49 |
| ClCC1(C(Cl)Cl)C(=C(Cl)Cl)C2CC1C(Cl)(Cl)C2Cl (stereo not drawn) | 5.49 |
| ClCC1(CCl)C2[C@@H](Cl)[C@H](Cl)C1(C(Cl)Cl)[C@@H](Cl)[C@@H]2Cl | 5.57 |
| ClCC1(C(Cl)Cl)C2CC(Cl)C1(C(Cl)Cl)CC2(Cl)Cl (stereo not drawn) | 5.75 |
| ClCC1(CCl)C2C(Cl)C(Cl)(Cl)C1(C(Cl)Cl)CC2(Cl)Cl (stereo not drawn) | 6.26 |
| ClCC1(CCl)C2C(Cl)C(Cl)C1(CCl)C(Cl)(Cl)C2Cl (stereo not drawn) | 5.74 |
| CC1(CCl)C2CC(Cl)(Cl)C1(C(Cl)Cl)CC2Cl (stereo not drawn) | 5.49 |
| ClC[C@@]1(C(Cl)Cl)[C@@H]2CC(Cl)(Cl)[C@@]1(C(Cl)Cl)[C@H](Cl)C2(Cl)Cl | 6.64 |
| ClC=C1C2CC(C1(CCl)CCl)C(Cl)(Cl)C2Cl (stereo not drawn) | 5.2 |
| ClCC1(C(Cl)Cl)C2CC(Cl)(Cl)C1(C(Cl)Cl)CC2(Cl)Cl (stereo not drawn) | 5.96 |
| ClCC1(C(Cl)Cl)C2CC(Cl)(Cl)C1(C(Cl)Cl)C(Cl)C2Cl (stereo not drawn) | 5.8 |
| CC1(C(Cl)Cl)C2C(Cl)C(Cl)C1(C(Cl)Cl)C(Cl)C2Cl (stereo not drawn) | 5.52 |
| ClCC1(C(Cl)Cl)C2C(Cl)CC1(C(Cl)Cl)C(Cl)C2Cl (stereo not drawn) | 5.19 |
| ClCC1(CCl)[C@H]2CC(Cl)(Cl)[C@]1(CCl)[C@@H](Cl)[C@@H]2Cl | 5.23 |
